Assay results reported in ChEMBL document CHEMBL5579825, “Exploration of 1-(indolin-1-yl)-2-(thiazol-2-yl)ethan-1-one derivatives as novel anti-HBV agent with potential TLR7-agonistic effect” (Eur J Med Chem, 2024).
Calls of active or inactive are those of the source. The rule behind the calls is not given here.

Tests used:
[1] = test system: Hepatitis B virus; test: Antiviral activity against HBV infected in human HepG2.2.15 cells assessed as inhibition of viral DNA replication at 4 uM pre-transfected cells with viral genome followed by compound treatment for 6 days with replacement of medium containing compound on every 2 days by RT-PCR analysis relative to control; assay type: functional; conditions: for inhibition at 4 µM: HepG2.2.15, 144 h, time 6 day; for inhibition: time 6.0 day
[2] = test system: Hepatitis B virus; test: Antiviral activity against HBV infected in human HepG2.2.15 cells assessed as inhibition of viral DNA replication pre-transfected cells with viral genome followed by compound treatment for 6 days with replacement of medium containing compound on every 2 days by RT-PCR analysis; assay type: functional, organism-based
[3] = Selectivity index, ratio of CC50 for human HepG2.2.15 cells to IC50 for HBV infected in human HepG2.2.15 cells assessed as inhibition of viral DNA replication; assay type: toxicity, cell-based; conditions: HepG2.2.15 cells, read-out: Ratio CC50/IC50
[4] = Cytotoxicity against human HepG2.2.15 cells incubated for 72 hrs by CCK8 assay; assay type: toxicity, cell-based, HepG2 2.2.15
[5] = Inhibition of HBsAg secretion in human HepG2.2.15 cells treated for 6 days with replacement of medium containing compound on every 2 days by […]; assay type: functional, cell-based; conditions: HepG2 2.2.15
[6] = Selectivity index, ratio of CC50 for human HepG2.2.15 cells to IC50 for HBsAg secretion in human HepG2.2.15 cells; assay type: toxicity, cell-based; conditions: for selectivity ratio: HepG2.2.15 cells, read-out: Ratio CC50/IC50
[7] = Selectivity index, ratio of CC50 for human HepG2.A64 cells to IC50 for HBV infected in human HepG2.A64 cells assessed as inhibition of viral DNA replication; assay type: toxicity, cell-based; conditions: read-out: Ratio CC50/IC50
[8] = test system: Hepatitis B virus; test: Antiviral activity against HBV infected in human HepG2.A64 cells assessed as inhibition of viral DNA replication pre-transfected cells with viral genome followed by compound treatment for 3 days by RT-PCR analysis; assay type: functional, organism-based; conditions: HepG2.A64, 72 h
[9] = Cytotoxicity against human HepG2.A64 cells incubated for 72 hrs by CCK8 assay; assay type: toxicity, cell-based
[10] = test system: Hepatitis B virus; test: Antiviral activity against HBV infected in LAM/ETV-resistant human HepG2.A64 cells assessed as inhibition of viral DNA replication at 4 uM pre-transfected cells with viral genome followed by compound treatment for 72 hrs by RT-PCR analysis relative to control; assay type: functional
[11] = test system: Hepatitis B virus; test: Antiviral activity against HBV infected in human HepG2.2.15 cells assessed as inhibition of viral DNA replication at 4 uM pre-transfected cells with viral genome followed by compound treatment for 72 hrs by RT-PCR analysis relative to control; assay type: functional
[12] = test system: Hepatitis B virus; test: Antiviral activity against HBV infected in LAM/ETV-resistant human HepG2.A64 cells assessed as inhibition of viral DNA replication at 10 uM pre-transfected cells with viral genome followed by compound treatment for 72 hrs by RT-PCR analysis relative to control; assay type: functional
[13] = test system: Hepatitis B virus; test: Antiviral activity against HBV infected in human HepG2.2.15 cells assessed as inhibition of viral DNA replication at 10 uM pre-transfected cells with viral genome followed by compound treatment for 72 hrs by RT-PCR analysis relative to control; assay type: functional
[14] = test system: Hepatitis B virus; test: Antiviral activity against HBV infected in LAM/ETV-resistant human HepG2.A64 cells assessed as inhibition of viral DNA replication at 100 uM pre-transfected cells with viral genome followed by compound treatment for 72 hrs by RT-PCR analysis relative to control; assay type: functional
[15] = test system: Hepatitis B virus; test: Antiviral activity against HBV infected in human HepG2.2.15 cells assessed as inhibition of viral DNA replication at 100 uM pre-transfected cells with viral genome followed by compound treatment for 72 hrs by RT-PCR analysis relative to control; assay type: functional

SMILES	inhibition at 4 µM [1] [%]	IC50 [2] [nM]	selectivity ratio [3]	CC50 at 72 h [4] [µM]	IC50 [5] [µM]	other results
COc1ccc2c(c1)N(C(=O)Cc1csc(COc3ccccc3)n1)CC2	18.6					
O=C(Cc1csc(COc2ccccc2)n1)N1CCc2cc(Cl)ccc21	80	230	> 217	> 50	26.1	selectivity ratio [6]: > 1.92; selectivity ratio [7]: > 35.1; IC50 [8]: 570 nM; CC50 at 72 h [9]: > 20 µM; inhibition at 4 µM [10]: 73.7%; inhibition at 4 µM [11]: 74.5%
COc1cccc(OCc2nc(CC(=O)N3CCc4ccccc43)cs2)c1	8.33					
COc1ccccc1OCc1nc(CC(=O)N2CCc3ccccc32)cs1	45.5					
O=C(Cc1csc(COc2ccc(C(F)(F)F)cc2)n1)N1CCc2ccccc21	70.2	650	> 76.9	> 50	39.5	selectivity ratio [6]: > 1.27
Cc1cccc2c1N(C(=O)Cc1csc(COc3ccccc3)n1)CC2	13.9					
Cc1ccc2c(c1)N(C(=O)Cc1csc(COc3ccccc3)n1)CC2						inhibition [1]: inactive
O=C(Cc1csc(COc2cccc(F)c2)n1)N1CCc2ccccc21						inhibition [1]: inactive
O=C(Cc1csc(COc2ccccc2)n1)N1CCc2ccc(Br)cc21	14.1					
O=C(Cc1csc(COc2ccccc2)n1)N1CCc2ccc(F)cc21	34.2					
O=C(Cc1csc(COc2ccccc2Br)n1)N1CCc2ccccc21						inhibition [1]: inactive
O=C(Cc1csc(COc2ccccc2)n1)N1CCc2c(Cl)cccc21	33.9					
O=C(Cc1csc(COc2cccc(Br)c2)n1)N1CCc2ccccc21	73.4	840	> 59.5	> 50	42.7	selectivity ratio [6]: > 1.17
O=C(Cc1csc(COc2cccc(Cl)c2)n1)N1CCc2ccccc21						inhibition [1]: inactive
COc1cccc2c1N(C(=O)Cc1csc(COc3ccccc3)n1)CC2	41.3					
O=C(Cc1csc(COc2ccc(Br)cc2)n1)N1CCc2ccccc21	25.7					
O=C(Cc1csc(COc2ccccc2)n1)N1CCc2cccc(Br)c21	51.6	3070	> 16.3	> 50	> 50	Ratio CC50/IC50 [6]: Not Active
Cc1ccc2c(c1)CCN2C(=O)Cc1csc(COc2ccccc2)n1	40.5					
O=C(Cc1csc(COc2ccccc2)n1)N1CCc2cccc(F)c21	34.6					
Cc1ccccc1OCc1nc(CC(=O)N2CCc3ccccc32)cs1	22.6					

SMILES	inhibition at 4 µM [1] [%]	IC50 [2] [nM]	selectivity ratio [3]	CC50 at 72 h [4] [µM]	IC50 [5] [µM]	other results
O=C(Cc1csc(COc2ccc(F)cc2)n1)N1CCc2ccccc21	19.1					
Cc1ccc(OCc2nc(CC(=O)N3CCc4ccccc43)cs2)cc1	39.4					
O=C(Cc1csc(COc2ccccc2)n1)N1CCc2c(F)cccc21	52.2	3900	> 12.8	> 50	30.5	selectivity ratio [6]: > 1.64
O=C(Cc1csc(COc2ccccc2F)n1)N1CCc2cc(Br)ccc21	72.6	430	> 116	> 50	44.7	selectivity ratio [6]: > 0.89
O=C(Cc1csc(COc2ccccc2C(F)(F)F)n1)N1CCc2ccccc21	74.5	660	> 75.8	> 50	> 50	Ratio CC50/IC50 [6]: Not Active
O=C(Cc1csc(COc2cccc(C(F)(F)F)c2)n1)N1CCc2ccccc21	50.9	3510	> 14.2	> 50	41.6	selectivity ratio [6]: > 1.2
O=C(Cc1csc(COc2ccccc2)n1)N1CCc2ccccc21	45.4	17200	> 2.91	> 50	> 50	Ratio CC50/IC50 [6]: Not Active
C=C1[C@H](CO)[C@@H](O)C[C@@H]1n1cnc2c(=O)[nH]c(N)nc21 [ENTECAVIR ANHYDROUS]						inhibition at 10 µM [12]: 20.1%; inhibition at 10 µM [13]: 98.1%
Cc1cccc(OCc2nc(CC(=O)N3CCc4ccccc43)cs2)c1	65.4	740	> 67.6	> 50	20.4	selectivity ratio [6]: > 2.45
O=C(Cc1csc(COc2ccccc2)n1)N1CCc2c(Br)cccc21						inhibition [1]: inactive
O=C(Cc1csc(COc2ccccc2Cl)n1)N1CCc2ccccc21	15.7					
COc1cccc2c1CCN2C(=O)Cc1csc(COc2ccccc2)n1	4.26					
O=C(Cc1csc(COc2ccccc2)n1)N1CCc2ccc(Cl)cc21	59.6	620	> 80.7	> 50	42.2	selectivity ratio [6]: > 1.19
COc1ccc2c(c1)CCN2C(=O)Cc1csc(COc2ccccc2)n1	57.7	2840	> 17.6	> 50	39.1	selectivity ratio [6]: > 1.28
O=C(Cc1csc(COc2ccccc2)n1)N1CCc2cc(Br)ccc21	94	380	> 132	> 50	> 50	Ratio CC50/IC50 [6]: Not Active
O=C(Cc1csc(COc2ccccc2)n1)N1CCc2cc(F)ccc21	18.7					
COc1ccc(OCc2nc(CC(=O)N3CCc4ccccc43)cs2)cc1	34.5					
Nc1ccn([C@@H]2CS[C@H](CO)O2)c(=O)n1 [LAMIVUDINE]	90.8	< 100	> 1000	> 100	> 100	Ratio CC50/IC50 [6]: Not Active; IC50 [8]: > 100000 nM; CC50 at 72 h [9]: > 100 µM; inhibition at 100 µM [14]: 17.8%; inhibition at 100 µM [15]: 92.3%
O=C(Cc1csc(COc2ccccc2)n1)N1CCc2cccc(Cl)c21	65.9	1010	> 49.5	> 50	> 50	Ratio CC50/IC50 [6]: Not Active
